Laboratory results from US11299515B2, “Optimized peptides for targeting human nerves and their use in image guided surgery, diagnostics and therapeutic” (The Regents of the University of California, priority 2017, dated 2022).
Blank lines part the entries; values can stand above or below the compound they belong to.

Key:
[1] = Fluorescent plate reader assay of quenching by food dyes
Source text: FIG. 21: Food dyes efficiently quench FAM-NP41 bladder fluorescence. A fluorescent plate reader assay was used to show dose dependent quenching of FAM-NP41 fluorescence. Erythrosine extra bluish (Santa Cruz Biotechnology, Inc.) was the most efficient quencher with >80% quenching at 2.5 times dye to fluorescein ratio and >95% quenching at 5× dye to fluorescein ratio (A). Other food dyes tested included Allura Red and Sunset Yellow. To test for quenching in-vivo we administered, by direct iv injection, 50 mg/kg MW 879.76 (^˜1.5 μmoles per 25 gm mouse) to mice that had been injected with 150 nmoles of FAM-NP41 2 hours prior. This represents approximately a 10× dye to FAM-NP41 dose. Some bladder fluorescence remained after imaging so additional dye (30 μl, 10 mM Erythrosin extra bluish) was injected directly into the bladder. Images are shown for mouse bladder with no dye quencher (B) and addition of Erythrosine extra bluish (intravenous and intra bladder) (C) with bladder fluorescence quench to near background level. Dye would likely not be needed if this method was used for human patients as bladder catheterization in patients could be started as FAM-NP41 is administered so bladder fluorescence could be washed out.

human sural nerve = assay: Topical application of FAM-labelled peptides on human nerve sections; format: binding; conditions: for normalized average signal intensity (normalized to FAM-HNP401): 100 μM FAM labelled, human sural nerve sections; for binding / contrast among peptides and controls screened on human nerve: 100 μM topical, sural nerve and temporalis muscle
Source text: To determine the affinity of phage selected peptides for binding to human nerve they were chemically synthesized by solid-phase synthesis and labeled with fluorescein at the C-terminus via a GGC linker. Peptides were topically applied to sectioned human sural nerve and human temporalis muscle to determine nerve to muscle contrast. […] To confirm binding and contrast of HNP401 for additional nerve types binding was compared in nerve and muscle with both HNP401 and NP41 on facial brachial plexus nerve (FIG. 9). […] FAM-HNP401 was additionally tested topically on ex-vivo tissue for labeling of mouse facial nerve with surrounding muscle (FIG. 10, J-M).
To test the affinity of selected phage display peptides for binding to human nerves, they were chemically synthesized by solid-phase synthesis and labeled with fluorescein at the C-terminus. Peptides were topically applied to sections of surgically harvested human sural nerve and temporalis muscle to determine nerve to muscle contrast for selected peptides and controls (FIG. 23). […] To quantify differential binding to nerve versus muscle, fluorescence signal intensity was measured for ROIs from the perineurium of select nerves and human temporalis muscle.
Human sural nerve, antebrachial nerve and laryngeal nerve and temporalis muscle were obtained under IRB protocol number 130837 for Dr. Quyen Nguyen. Human peripheral nerves (typically sural) were obtained from patients undergoing nerve resection procedures. Human nerves from prostate gland of two patients were acquired under Moores Cancer Centre Biorepository IRB protocol number 090401. Tissue were sectioned and mounted on glass slides or Cryojane tape. Tissue sections were placed in a humidifier chamber for 30 min before application of the peptide solution. Peptides were diluted to appropriate concentration in 0.5×HBSS prior to topical application. 50 μl of peptide solution of with known concentration (1 μM to 375 μM) were applied to 10 μm nerve sections on tape or slides and incubated for 30 minutes in a humidifier chamber. After incubation with peptide nerve sections were washed with twice with 0.5×HBSS and once with 1×PBS. A cover-slip was applied and slides were imaged immediately on either a Zeiss Lumar dissecting scope of Nikon A1 confocal microscope. For confocal imaging tissue sections of 10 μm thickness were imaged with 488 nm laser excitation 515 (25) and a 10× air objective and a […] size. For immunohistochemistry the confocal Images were acquired with a 20× air objective at 0.4 μm/pixel.
Image J was used to analyze and compare images acquired using the confocal microscope and the Lumar dissecting scope. For each experimental set where probes were compared, we kept the acquisition parameters identical so as to directly compare the data obtained. […] All raw image files for a given experimental cohort were loaded at the same time into Image J as 16-bit tiff images. We then levelled the image for tissue treated with FAM-HNP401. Once these levels were set, the settings are propagated to all images in one step using Image J. The brightest image is set as the benchmark for all other images in the cohort to avoid saturating when the leveling is propagated.

sciatic nerve [2] = format: in vivo, mice
Description: Either 150 or 450 nmoles of fluorescein labeled synthetic peptides were injected intravenously into mice. After a 2 hour waiting period for washout of nonspecific binding, mice were anesthetized and skin incisions were made over the dorsal surface of the hind legs to expose the sciatic nerve. Brightfield and fluorescent images were obtained with a dissecting microscope using Metamorph software (FIG. 1). Quantitation of fluorescence of nerves and adjacent non-nerve tissue was performed with Image J (FIG. 2). Peptides were also topically applied to human nerve sections. Nerves were freshly frozen in OTC prior to sectioning. Peptides were topically applied at concentration at 300 uM with images being shown for HNP401, HNP402, HNP404 and previous reported nerve binding peptides NP41 (FIG. 3)). Also shown are images for variants HNP301 ([…]) and NP124. NP713 was also tested and has not reported in a publication. NP713, is a derivative of NP41 with sequence […] that was enriched after 7 rounds of selection against mouse tissue, and was also found after 4 rounds of selection against human tissue. […] All D-amino acid controls for NP-41 and NP713 and non peptide conjugated carboxyfluorescein, are also shown. […] HNP401 was then tested for labeling of rat sciatic and rat prostate cavernosal nerve in-vivo. […] FIGS. 6 and 7 show in-vivo labeling of rat prostate cavernosal nerve with comparison to white light visualization.
Following anesthesia with intra-peritoneal injection of ketamine (80 mg/kg) and midazolam (40 mg/kg), FAM-NP41 or its variants were administered into mice retro-orbitally. After a washout period of 2-4 hours, the animals were anesthetized with ketamine (50 mg/ml) and xylazine (20 mg/ml). The bladder and prostate were exposed through a midline abdominal incision. The autonomic nerve along the cavernosal vessel in the prostate was imaged and recorded using a custom-made surgical imaging system. This system is a modified from Olympus MVX10 scope capable of hi-resolution fluorescence, RGB reflectance and realtime overlay with zoom from 0.6 to 5.7 cm field of view. Image) was used for quantitative analysis of nerve contrast for each peptide dye conjugate tested. Images of autonomic nerve in prostate were selected from the recorded files and magnified 300-400% prior to selection of ROI and measurement. Nerves and adjacent non-nerve tissues ROIs were hand-selected using polygonal selection tool at the same location from both of reflectance and fluorescence images. The mean and standard deviation of the pixel intensities within the selected areas were compared for nerves (mean=In, SD=σn) and adjacent background tissue (mean=Ib, SD=σb). Nerve to non-nerve contrast was calculated after background subtraction with formula |In−Ib|/(σn^2+σm^2)^0.5. For imaging the nerves in the prostate gland of male rats peptide dye conjugate were injected retro-orbitally. FAM-HNP401 was injected at a concentration of 13 mgs/kg followed by imaging after 15 minutes or alternatively a dose of 52 mgs/kg was used with imaging after 3 hours. Live animal surgery was performed under a ketamine-xylazine cocktail according to IACUC protocol. Sterile technique was used to expose the prostate; bladder was drained with a small syringe and sutured. The surgical field was washed with sterile saline prior to imaging. Mann-Whitney test was used to analyze data for both mice and rats to compare nerve intensity and nerve to non-nerve contrast between white light reflectance and fluorescence.

[3] = tested on: autonomic nerves within the prostate; assay: In-vivo imaging of autonomic nerves within the prostate of mice; conditions: rodent models
Description: To visualize the autonomic nerves within the prostate of mice, NP41 peptide conjugated to fluorescein (FAM-NP41) was injected intravenously followed by imaging of prostate and surrounding tissue after surgical resection. Strong fluorescence from dye that rapidly accumulates in the bladder hindered visualization of the nerves within the prostate. To enhance visualization the bladder was surgically drained of urine and sutured prior to imaging. The urethra, an anatomically distinct structure, is never emptied of urine as the mice are alive for the duration of the experiment, resulting in a continuous passage of urine carrying metabolized peptide-dye to the bladder […]. […] To quantify nerve detection a total of 10 mice were injected with 600 nmoles FAM-NP41 and signal intensity was measured for nerve versus adjacent non-nerve tissue using both fluorescence and white light reflectance. Values to the right of the line indicate that there is improved visualization with fluorescence compared to reflected light. […]
Following anesthesia with intra-peritoneal injection of ketamine (80 mg/kg) and midazolam (40 mg/kg), FAM-NP41 or its variants were administered into mice retro-orbitally. […] The autonomic nerve along the cavernosal vessel in the prostate was imaged and recorded using a custom-made surgical imaging system. […]

sciatic nerve [4] = conditions: live mice, reference [22]; cited from earlier work
[5] = tested on: autonomic nerve within the prostate; assay: In-vivo imaging of autonomic nerve within the prostate of rats; conditions: rat prostate cavernosal nerve, live rats

Compound: O.O=C([O-])c1ccccc1-c1c2cc(I)c(=O)c(I)c-2oc2c(I)c([O-])c(I)cc12.[Na+].[Na+] [Erythrosine extra bluish]
quenching of FAM-NP41 fluorescence ([1]; 2.5 times dye to fluorescein ratio): > 80%
quenching of FAM-NP41 fluorescence ([1]; 5× dye to fluorescein ratio): > 95%

Compound: EEPYYVVKKSS [HNP401-N-6, tested FAM labelled]
normalized average signal intensity (normalized to FAM-HNP401) (human sural nerve): 1.0±0.34

Compound: NTQTLAKAPEHT [NP41, reference compound]
contrast (nerve fluorescent intensity/muscle fluorescent intensity) (sciatic nerve [2]; 450 nmols, FAM-labelled peptide, living wild type mice, FIG. 2): 6.7 fold
washout from nerve (sciatic nerve [2]; mouse, in vivo): little remaining signal after 24 hours
average increase in nerve to non-nerve signal, fluorescence vs white light reflectance [3]: 17%
time to almost complete wash out after systemic injection (sciatic nerve [4]): ≤ 24 h

Compound: PWEEPYYVVKKSS [HNP401-N-4, tested FAM labelled]
normalized average signal intensity (normalized to FAM-HNP401) (human sural nerve): 0.56±0.18

Compound: PYYVVKKSS [HNP401-N-8, tested FAM labelled]
normalized average signal intensity (normalized to FAM-HNP401) (human sural nerve): 0.98±0.31

Compound: QVPWEEPYYVVKKSS [HNP401-N-2, tested FAM labelled]
average signal intensity (nerve binding of deletion variants) (human sural nerve; 100 uM FAM labelled, human nerve sections, n=5): 1498.73 (+/−517.63)
normalized average signal intensity (normalized to FAM-HNP401) (human sural nerve): 2.02±0.65
Normalized nerve to temporalis muscle contrast, increase with respect to FAM-HNP401 (human sural nerve; human sural nerve vs temporalis muscle): 3 fold

Compound: SGQVPWEEPYYVVKK [tested FAM labelled]
effect of terminal deletion on binding (human sural nerve; removal of C-terminal serine): tolerated

Compound: SHSSEFPRSWDMETN [HNP301]
contrast for prostate nerve labeling compared to HNP401 [5]: not showing as much contrast

binding / contrast among peptides and controls screened on human nerve (human sural nerve): only weak non-specific binding
binding / contrast among peptides and controls screened on human nerve (human sural nerve; listed as Carboxyfluorescein): low signal and non-specific binding
Compound: carboxyfluorescein [reference compound]
